In US6599917B1, “Quinuclidine compounds and drugs containing the same as the active ingredient” (priority 1999, dated 2003):

Key:
[1] = system: triglyceride biosynthesis; experiment: Measurement of triglyceride biosynthesis inhibitive activity in a rat liver cell; type: cell-based; conditions: Rattus norvegicus, 6 h, read-out: Triglyceride biosynthesis inhibitive activity inhibition in 1 μM of the specimen
Protocol: (§1) Measurement of Cholesterol and Triglyceride Biosynthesis Inhibitive Activities in a Rat Liver Cell
(§2) A liver cell was isolated from a male SD rat according to a usual method (collagenase perfusion method) and subjected to an experiment.
(§3) The isolated liver cells were planted in an amount of 500 μ1 every well on a Type collagen coated 24 well plate (cell density: 4×10^5 cell/ml). As the cell culture solution, a Williams'E medium (adjusted to pH 7.4) containing 10% FCS, 1 μM insulin, 1 μM dexamethasone, 100 units/ml penicillin and 10 μg/ml streptomycin was used. After the liver cells were incubated in a CO2 incubator for 2 hours, unstuck cells were removed and the liver cells were further incubated overnight.
(§4) After the culture medium was exchanged, the specimen diluted in a 10% DMSO-90% cell culture solution was added to each well in an amount of 5 μ1. DMSO (final concentration: 0.1%) was added to a control group. A [1-^14C]Acetic acid, sodium salt (5 μCi/well) was added to the media 10 minutes and 4 hours after the specimen was added for the measurement of cholesterol synthesis inhibitive action and for the measurement of triglyceride synthesis inhibitive action respectively, followed by culturing for further 2 hours.
(§5) After the cultivation was finished, the supernatant was removed and the cells were washed using PBS(−)(Phosphate buffered saline (Ca^2+, Mg^2+free) twice. Hexane/isopropyl alcohol (3:2, v/v) was added to the cells and the cells were then allowed to stand for 10 minutes to extract intracellular lipid. The extract was transferred to a glass tube and exsiccated under a nitrogen gas stream. Further, the exsiccated extract was washed with 25 mL of petroleum ether and then dissolved in petroleum ether containing the following components: 0.01% squalene, 0.3% free cholesterol, 0.3% cholesterol acetate, 0.1% triolein, 0.01% farnesol and 0.3% lanosterol.
(§6) The resulting solution was spotted on a TLC plate to perform an isolating operation. The spotted solution was developed for 10 minutes by using toluene/isopropyl ether (1:1, v/v) as the solvents and for further 15 minutes by using heptane in place of the above solvent after it was dried using air.
(§7) After the development was finished, the TLC plate was subjected to iodine color development. After each position of free cholesterol and triolein which were used as standards was confirmed, the image of the TLC plate was transferred to a BAS 2000 (Fuji Film) imaging plate by exposure performed for 16 hours. This transferred image was analyzed using a BAS 2000 IP Reader and an Imaging analyzer II to measure radiative activities contained in the free cholesterol and triglyceride fractions.
(§8) The cholesterol biosynthesis inhibitive activity was expressed by a concentration (IC50) at which 50% of the radiative activity of the control group was inhibited and the triceride biosynthesis inhibitive activity was expressed by an inhibition rate (%) to the control group.

[2] = biological target: T1, squalene synthesizing enzyme (Rattus norvegicus, UniProt Q02769); experiment: Measurement of squalene synthesizing enzyme inhibitive activity by using a rat liver microsome; type: biochemical; conditions: [3H]-farnesylpyrophosphoric acid
T1 construct: The liver was excised from a male Spraugue-Dawly rat; from tissue; host or cells: liver microsome fraction of male Sprague-Dawley rat (8 to 9 weeks)
T1 sequence (Q02769 1-416): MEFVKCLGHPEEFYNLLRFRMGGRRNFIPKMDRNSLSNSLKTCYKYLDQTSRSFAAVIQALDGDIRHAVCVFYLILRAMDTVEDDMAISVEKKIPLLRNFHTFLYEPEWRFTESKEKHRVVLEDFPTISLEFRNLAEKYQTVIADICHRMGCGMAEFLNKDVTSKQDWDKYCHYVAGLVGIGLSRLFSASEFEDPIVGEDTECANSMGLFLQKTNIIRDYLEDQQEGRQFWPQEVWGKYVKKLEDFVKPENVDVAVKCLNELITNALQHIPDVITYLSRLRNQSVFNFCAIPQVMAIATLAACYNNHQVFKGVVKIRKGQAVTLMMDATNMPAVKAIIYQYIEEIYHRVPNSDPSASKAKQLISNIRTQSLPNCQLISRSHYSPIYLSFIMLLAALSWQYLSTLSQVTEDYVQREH
Protocol: Measurement of Squalene Synthesizing Enzyme Inhibitive Activity by Using a Rat Liver Microsome
(I) The reaction was run on a scale of 500 μ1. 200 µl of a solution containing 125 mM tris-hydrochloric acid (pH: 7.3), 2.5 mM magnesium chloride, 5 mM potassium fluoride and 10 mM reduction type nicotinamidoadenine dinucleotide phosphoric acid, 100 µl of the specimen solution with a 5-fold concentration, 100 µl of distilled water and 50 µl of 0.4 to 1 mg/ml rat liver microsome prepared by the following method were mixed.
(II) The above mixture was pre-incubated at 37° C. for 10 minutes and thereafter, 50 µl of 100 μM [^3H]-farnesylpyrophosphoric acid (30 mCi/mmol, NEN) was added to the mixture to start a reaction. The reaction was continued at 37° C. for 10 minutes. 1 ml of ethanol was added to the resulting mixture to terminate the reaction and then 1 ml of distilled water and 3 ml of petroleum ether were added to the reaction solution, which was then shaken for 30 minutes. The water phase was separated from the oil phase, the water phase was frozen at −70° C. in dry ice/methanol and the radiative activity of the organic phase was measured using a liquid scintillator. Or the organic phase was evaporated to dryness using nitrogen gas and the residue was dissolved as a marker in 25 µl of chloroform containing squalene, farnesol and cholesterol. This sample was spotted on a TCL plate (Merck) and developed using heptane for 15 to 20 minutes. A band of squalene was cut from the plate to measure the radiative activity by using a liquid scintillation counter. The data was expressed by a concentration (IC50) at which 50% of the radiative activity of a control group was inhibited.
Method of the Preparation of a Rat Liver Microsome
The following operations were all carried out on ice and the centrifugation was performed at 4° C. The liver was excised from a male Spraugue-Dawly rat (hereinafter referred to as SD rat) (8 to 9 weeks age) and perfused with 1.15% potassium chloride to remove the blood. Then, the liver was minced using a forceps and the minced liver was homogenized using a Teflon homogenizer. The resulting sample was centrifuged at 16000×g twice for 15 minutes. The supernatant was further centrifuged at 105000×g for 60 minutes. The obtained deposit was determined as a microsome fraction, which was then suspended in a 25 mM tris-hydrochloric acid solution. The concentration of protein was measured quantitatively by a Bradford method and the concentration of protein was adjusted to 20 mg/ml by using the same solution. The resulting solution was stored at […].

cholesterol biosynthesis [3] = experiment: Measurement of cholesterol biosynthesis inhibitive activity in a rat; type: in vivo; conditions: 2 h; male SD rat, oral, dose 1 mg/kg, inhibition rate to control group
Protocol: Measurement of Cholesterol Biosynthesis Inhibitive Activity in a Rat
(I) An SPF grade male SD rat (4 weeks age, SLC) was bred for more than one week in a day-night-reversal room and subjected to an experiment made in the daytime. The compound dissolved in a 2% Tween 80 solution was administered (5 ml/kg) to the rat using an oral sonde. After one hour, a [1-^14C]Acetic acid, sodium salt (1.67-2.22 GBq/mmol, 37 MBq/ml, NEN) prepared by diluting to 1.85 MBq/ml by using physiological saline was intraabdominally administered (300 μ1/animal). After one hour, the rat was anesthetized by diethyl ether to carry out exsanguination from the aorta abdominalis. The collected blood was centrifuged at 3000 rpm for 10 minutes to prepare blood plasma.
(II) 1 ml of 4N KOH and 1 ml of ethanol were added to 2 ml of the blood plasma, which was then incubated at 65° C. for one hour and there after, 3 ml of petroleum ether was added. The plasma was shaken for 30 minutes. After the water phase was separated from the organic phase by centrifugation, it was frozen at −80° C. and the radiative activity of the organic phase was measured using a liquid scintillation counter. Or the organic phase was evaporated to dryness using nitrogen gas and the residue was dissolved as a marker in 25 µl of chloroform containing squalene, farnesol and cholesterol. This sample was applied to a TCL plate (Merck) and developed using toluene and isopropyl ether (1:1) for 15 to 20 minutes. A band of cholesterol was cut from the plate to measure the radiative activity by using a liquid scintillation counter. The cholesterol biosynthesis inhibition activity was expressed by an inhibition rate (%) to a control group.

cholesterol biosynthesis [4] = experiment: Measurement of cholesterol biosynthesis inhibitive activity in a rat liver cell; type: cell-based; conditions: 10 min; isolated rat liver cells, [1-14C]acetic acid added 10 minutes after the specimen
Protocol: as §1, §2, §3, §4, §5, §6, §7, §8

Work on O[C@]1(C#Cc2ccc(OCC3OCCO3)nc2Cc2ccccc2)CN2CCC1CC2 [Example 153, (3R)-3-[2-Benzyl-6-(1,3-dioxolan-2-yl)methyloxy-3-pyridyl]ethynyl-3-quinuclidinol] yielded an inhibition at 1 µM [1] of 85%, an IC50 [2] of 11 nM and an inhibition in vivo at 1 mg/kg (cholesterol biosynthesis [3]) of 82%. The IC50 (cholesterol biosynthesis [4]) was 55 nM.
